According to PMC8232238 (Cells, 2021):
“And” between values parts separate entries of the source, which are not always exact repeats. Equal entries are not always repeated. Where two headings read alike, the source gives them in different places.

Tests used:
[1] = UV/Vis absorption and fluorescence (photophysical properties) in DMSO; type: physicochemical; details: for λem: excitation at 340 nm; for Φf (fluorescence quantum yield): relative to quinine sulfate, average of two samples
Experimental: S1.6 UV/Vis and Fluorescence Data
UV/Vis analysis was performed on a Cary Eclipse 300 UV/Vis spectrophotometer and fluorescence measurements performed on a Cary Eclipse Fluorescence spectrophotometer. All analysis was performed in 10 mm quartz cuvettes using AR grade DMSO. Relative quantum yields were obtained by comparison to quinine sulfate (фf = 0.58 in 0.1 M H2SO4) with absorbance of samples adjusted so that the absorbance at 340 nm was similar to the reference.
Emission spectra were obtained by excitation at 340 nm. Quantum yield was obtained by use of the following equation and are reported as the average of two samples with error <5%; […]
Where фref is the literature quantum yield of the reference, η is the refractive index of the solvent (H2O = 1.333, DMSO = 1.479) and Is is the integrated fluorescence intensity of the sample with Iref being the same of the reference.
Table S1 – Photophysical properties of selected compounds in DMSO […]
†Average of two samples, ±1%

[2] = molecular target: T1, HDAC6 (Homo sapiens, UniProt Q9UBN7); assay: HDAC6 enzyme inhibition assay (single point and 10-dose IC50, Reaction Biology); type: biochemical; details: for IC50: average of two independent measurements; for HDAC6 average enzyme isoform activity (percentage of full enzyme activity): single point, inhibitor 0.01 μM, average of two measurements, ±2%
T1 construct: purchased Reaction Biology corporation (contract assay)
T1 sequence (Q9UBN7 1-1215): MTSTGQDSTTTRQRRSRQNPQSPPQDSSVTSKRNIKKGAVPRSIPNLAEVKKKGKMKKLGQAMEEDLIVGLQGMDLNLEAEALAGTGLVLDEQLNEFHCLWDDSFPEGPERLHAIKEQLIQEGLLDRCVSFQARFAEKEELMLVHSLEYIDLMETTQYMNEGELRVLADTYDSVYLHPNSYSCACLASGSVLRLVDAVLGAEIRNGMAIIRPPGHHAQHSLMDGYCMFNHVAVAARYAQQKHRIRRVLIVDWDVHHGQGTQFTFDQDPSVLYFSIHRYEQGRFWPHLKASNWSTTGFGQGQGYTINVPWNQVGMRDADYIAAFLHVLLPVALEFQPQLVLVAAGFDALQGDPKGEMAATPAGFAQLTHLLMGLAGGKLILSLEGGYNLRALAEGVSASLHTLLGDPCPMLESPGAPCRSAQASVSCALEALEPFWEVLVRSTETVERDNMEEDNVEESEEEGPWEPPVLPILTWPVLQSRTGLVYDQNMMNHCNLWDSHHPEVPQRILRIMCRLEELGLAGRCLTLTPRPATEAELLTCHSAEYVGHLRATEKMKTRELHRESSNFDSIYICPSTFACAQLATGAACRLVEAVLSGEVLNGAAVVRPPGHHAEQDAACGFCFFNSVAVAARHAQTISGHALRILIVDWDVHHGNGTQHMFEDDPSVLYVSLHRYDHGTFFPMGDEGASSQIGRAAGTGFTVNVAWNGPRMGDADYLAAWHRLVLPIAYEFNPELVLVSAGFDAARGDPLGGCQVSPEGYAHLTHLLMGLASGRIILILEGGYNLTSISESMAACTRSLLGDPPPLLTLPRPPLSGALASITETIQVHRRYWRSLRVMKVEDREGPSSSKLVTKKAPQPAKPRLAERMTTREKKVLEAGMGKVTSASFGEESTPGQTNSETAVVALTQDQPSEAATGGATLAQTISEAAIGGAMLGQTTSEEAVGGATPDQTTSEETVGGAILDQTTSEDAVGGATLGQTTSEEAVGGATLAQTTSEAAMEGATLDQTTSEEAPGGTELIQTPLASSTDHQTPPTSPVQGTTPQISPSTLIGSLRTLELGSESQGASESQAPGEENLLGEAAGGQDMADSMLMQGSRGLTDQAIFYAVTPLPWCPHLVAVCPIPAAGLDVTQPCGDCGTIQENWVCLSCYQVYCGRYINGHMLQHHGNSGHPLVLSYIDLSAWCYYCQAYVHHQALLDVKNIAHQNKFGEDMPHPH
Experimental: (§1) Against HDAC6, inhibition was determined using 0.01 µM of the inhibitor.
(§2) All IC50 measurements we performed by Reaction Biology corporation. Compounds were tested in
(§3) dilution starting at 1 uM. […]
(§4) (RHK(Ac)K(Ac)AMC). IC50 values were calculated using the GraphPad Prism 4 program based on a
(§5) sigmoidal dose-response equation. […]

[3] = molecular target: T2, HDAC8 (Homo sapiens, UniProt Q9BY41); assay: HDAC8 enzyme inhibition assay (single point and 10-dose IC50, Reaction Biology); type: biochemical; details: for IC50: average of two independent measurements; for Selectivity factor (SF) HDAC8 against HDAC6: selectivity for HDAC6 over HDAC8
T2 construct: purchased Reaction Biology corporation (contract assay)
T2 sequence (Q9BY41 1-377): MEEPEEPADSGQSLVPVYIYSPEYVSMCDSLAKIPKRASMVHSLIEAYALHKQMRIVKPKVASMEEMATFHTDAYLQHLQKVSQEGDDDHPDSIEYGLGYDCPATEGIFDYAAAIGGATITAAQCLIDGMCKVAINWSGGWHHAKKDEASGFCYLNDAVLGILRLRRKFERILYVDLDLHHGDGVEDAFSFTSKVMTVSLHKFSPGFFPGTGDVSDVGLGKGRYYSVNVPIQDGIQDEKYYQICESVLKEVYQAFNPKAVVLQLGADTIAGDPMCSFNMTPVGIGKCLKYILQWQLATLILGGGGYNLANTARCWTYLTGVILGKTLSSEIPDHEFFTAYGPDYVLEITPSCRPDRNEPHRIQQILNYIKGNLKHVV
Experimental: as §1, §2, §3, §4, §5

[4] = molecular target: T3, HDAC11 (Homo sapiens, UniProt Q96DB2); assay: HDAC11 enzyme inhibition assay (single point and 10-dose IC50, Reaction Biology); type: biochemical; details: for IC50: average of two independent measurements; for Selectivity factor (SF) HDAC11 against HDAC6: selectivity for HDAC6 over HDAC11; for HDAC11 average enzyme isoform activity (percentage of full enzyme activity): single point, inhibitor 1.0 μM, average of two measurements, ±2%
T3 construct: purchased Reaction Biology corporation (contract assay)
T3 sequence (Q96DB2 1-347): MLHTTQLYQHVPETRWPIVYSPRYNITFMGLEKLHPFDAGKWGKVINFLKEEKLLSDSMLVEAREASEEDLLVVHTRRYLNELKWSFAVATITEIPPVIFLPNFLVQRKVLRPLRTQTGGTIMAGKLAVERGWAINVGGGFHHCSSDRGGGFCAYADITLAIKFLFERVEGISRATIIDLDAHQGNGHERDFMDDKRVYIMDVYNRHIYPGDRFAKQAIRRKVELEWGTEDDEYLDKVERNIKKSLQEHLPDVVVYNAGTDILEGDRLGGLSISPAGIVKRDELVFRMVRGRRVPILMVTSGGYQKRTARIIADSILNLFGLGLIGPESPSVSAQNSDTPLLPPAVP
Experimental: as §1
All IC50 measurements we performed by Reaction Biology corporation. Compounds were tested in […]
dilution starting at 1 uM.
Substrate for HDAC11: 50 uM Fluorogenic HDAC Class2a Substrate […]
(Trifluoroacetyl Lysine).
(RHK(Ac)K(Ac)AMC). IC50 values were calculated using the GraphPad Prism 4 program based on a sigmoidal dose-response equation. […]

[5] = molecular target: T4, HDAC3 (Homo sapiens, UniProt O15379); assay: HDAC3 enzyme inhibition assay (single point and 10-dose IC50, Reaction Biology); type: biochemical; details: for IC50: average of two independent measurements; for HDAC3 average enzyme isoform activity (percentage of full enzyme activity): single point, inhibitor 1.0 μM, average of two measurements, ±2%
T4 construct: purchased Reaction Biology corporation (contract assay)
T4 sequence (O15379 whole entry, canonical isoform): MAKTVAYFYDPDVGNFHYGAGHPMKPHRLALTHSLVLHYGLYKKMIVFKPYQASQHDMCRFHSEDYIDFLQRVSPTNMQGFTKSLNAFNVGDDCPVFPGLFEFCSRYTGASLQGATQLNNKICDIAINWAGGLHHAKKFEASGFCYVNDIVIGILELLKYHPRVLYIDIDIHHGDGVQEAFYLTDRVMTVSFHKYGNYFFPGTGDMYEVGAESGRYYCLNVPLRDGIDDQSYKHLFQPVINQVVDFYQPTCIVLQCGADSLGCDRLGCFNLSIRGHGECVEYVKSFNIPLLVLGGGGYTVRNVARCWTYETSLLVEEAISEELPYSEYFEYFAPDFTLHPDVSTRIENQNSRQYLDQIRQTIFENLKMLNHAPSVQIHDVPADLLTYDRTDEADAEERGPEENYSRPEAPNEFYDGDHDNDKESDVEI
T4 sequence (Q9Y618 395-489 partner limits assumed): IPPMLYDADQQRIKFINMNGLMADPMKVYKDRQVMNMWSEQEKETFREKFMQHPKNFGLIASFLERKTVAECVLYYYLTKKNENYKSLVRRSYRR
Experimental: as §2, §3, §4, §5

[6] = molecular target: T5, HDAC1 (Homo sapiens, UniProt Q13547); assay: HDAC1 enzyme inhibition assay (single point and 10-dose IC50, Reaction Biology); type: biochemical; details: for IC50: average of two independent measurements; for Selectivity factor (SF) = HDAC1 IC50/HDAC6 IC50: selectivity for HDAC6 over HDAC1; for HDAC1 average enzyme isoform activity (percentage of full enzyme activity): single point, inhibitor 1.0 μM, average of two measurements, ±2%
T5 construct: purchased Reaction Biology corporation (contract assay)
T5 sequence (Q13547 whole entry, canonical isoform): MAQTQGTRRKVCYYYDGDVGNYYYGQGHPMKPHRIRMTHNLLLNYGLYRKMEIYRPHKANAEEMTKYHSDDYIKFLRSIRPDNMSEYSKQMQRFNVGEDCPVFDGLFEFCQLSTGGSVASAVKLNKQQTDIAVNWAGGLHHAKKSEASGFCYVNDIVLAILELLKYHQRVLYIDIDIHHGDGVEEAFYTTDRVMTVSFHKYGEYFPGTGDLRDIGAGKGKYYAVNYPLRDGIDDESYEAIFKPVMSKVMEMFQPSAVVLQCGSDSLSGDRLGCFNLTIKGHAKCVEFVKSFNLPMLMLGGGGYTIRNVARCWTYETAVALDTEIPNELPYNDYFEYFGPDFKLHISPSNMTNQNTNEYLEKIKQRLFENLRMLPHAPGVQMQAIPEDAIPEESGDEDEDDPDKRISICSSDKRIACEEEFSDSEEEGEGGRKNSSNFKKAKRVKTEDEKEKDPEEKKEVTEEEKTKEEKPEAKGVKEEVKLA
Experimental: as §2, §3, §4, §5

[7] = single point, inhibitor 1.0 μM, average of two measurements, ±2%

COCCN1C(=O)c2cccc3cc(N4CCCC4=O)cc(c23)C1=O [Compound 8]
λabs (absorption maximum) [1]: 343 nm
λabs (secondary absorption maximum) [1]: 383 nm
λem [1]: 441 nm
Φf (fluorescence quantum yield) [1]: 0.02

COCCN1C(=O)c2cccc3cc(NC(=O)c4ccccc4)cc(c23)C1=O [Compound 6]
λabs (absorption maximum) [1]: 344 nm
λabs (secondary absorption maximum) [1]: 385 nm
λem [1]: 435 nm
Φf (fluorescence quantum yield) [1]: 0.02

COc1ccc(C(=O)Nc2cc3c4c(cccc4c2)C(=O)N(CCCCCC(=O)NO)C3=O)cc1 [KNH020]
λabs (absorption maximum) [1]: 343 nm
λabs (secondary absorption maximum) [1]: 386 nm and 374 nm
λem [1]: 437 nm
Φf (fluorescence quantum yield) [1]: 0.05
IC50 [2]: 0.58 ± 0.002 nM
HDAC6 average enzyme isoform activity (percentage of full enzyme activity) [2]: 19.7%
IC50 [3]: 4330 ± 390 nM
Selectivity factor (SF) HDAC8 against HDAC6 [3]: 7466
HDAC8 average enzyme isoform activity (percentage of full enzyme activity) [3, 7]: 93.4%
IC50 [4]: 240 ± 11 nM
Selectivity factor (SF) HDAC11 against HDAC6 [4]: 413
HDAC11 average enzyme isoform activity (percentage of full enzyme activity) [4]: 58.7%
IC50 [5]: 27 ± 3 nM
Selectivity factor (SF) HDAC3 against HDAC6 ([5]; selectivity for HDAC6 over HDAC3): 47
HDAC3 average enzyme isoform activity (percentage of full enzyme activity) [5]: 17.2%
IC50 [6]: 87 ± 7 nM
Selectivity factor (SF) = HDAC1 IC50/HDAC6 IC50 [6]: 150
HDAC1 average enzyme isoform activity (percentage of full enzyme activity) [6]: 38.7%

CCC(=O)Nc1cc2c3c(cccc3c1)C(=O)N(CCCCCC(=O)NO)C2=O [KNH021]
λabs (absorption maximum) [1]: 341 nm
λabs (secondary absorption maximum) [1]: 383 nm
λem [1]: 435 nm
Φf (fluorescence quantum yield) [1]: 0.04
IC50 [2]: 0.97 ± 0.05 nM
HDAC6 average enzyme isoform activity (percentage of full enzyme activity) [2]: 20.3%
IC50 [3]: 950 ± 50 nM
Selectivity factor (SF) HDAC8 against HDAC6 [3]: 981
HDAC8 average enzyme isoform activity (percentage of full enzyme activity) [3, 7]: 50.4%
IC50 [4]: 2160 ± 140 nM
Selectivity factor (SF) HDAC11 against HDAC6 [4]: 2234
HDAC11 average enzyme isoform activity (percentage of full enzyme activity) [4]: 90.7%
IC50 [5]: 32 ± 1 nM
HDAC3 average enzyme isoform activity (percentage of full enzyme activity) [5]: 20.1%
IC50 [6]: 37 ± 2 nM
Selectivity factor (SF) = HDAC1 IC50/HDAC6 IC50 [6]: 38
HDAC1 average enzyme isoform activity (percentage of full enzyme activity) [6]: 29.8%

O=C(CCCCCN1C(=O)c2cccc3cccc(c23)C1=O)NO [scriptaid, reference compound]
HDAC8 average enzyme isoform activity (percentage of full enzyme activity) [3]: 60.3%

COCCN1C(=O)c2cccc3cc(NC(=O)OC(C)(C)C)cc(c23)C1=O [Compound 9]
λabs (absorption maximum) [1]: 345 nm
λabs (secondary absorption maximum) [1]: 367 nm
λem [1]: 442 nm
Φf (fluorescence quantum yield) [1]: 0.06

CCC(=O)Nc1cc2c3c(cccc3c1)C(=O)N(CCOC)C2=O [Compound 7]
λabs (absorption maximum) [1]: 341 nm
λabs (secondary absorption maximum) [1]: 383 nm
λem [1]: 439 nm
Φf (fluorescence quantum yield) [1]: 0.04
